Read-outs that look alike come from different tables or passages of the source. One block for each compound: values may come before it.
Legend:
PHD2_181-426 = PHD2_181-426 (Homo sapiens, UniProt Q9GZT9); experiment: 2,4-DNPH α-KG assay with PHD2
Method: (§1) During the course of the reaction, 50 μl was withdrawn at various time points from the reaction tube and quenched in 50 μl of 10% TCA at predetermined time points and vortexed.
(§2) Subsequent measurements were performing at time points conforming to those requirements. Initial velocities at each substrate concentration were fit using linear regression to generate Michaelis–Menten titration curves.
(§3) All data were plotted using GraphPad Prism 8.0 and presented as a mean ± standard deviation of three independent biological replicates, unless otherwise stated. For kinetic data, Km was determined by fitting the data to a least squares ordinary fit Michealis–Menten function, while IC50 values were obtained from fitting the data to a three-parameter log(inhibitor) versus response function. Where applicable, two-tailed t tests were performed to determine statistical significance using a p-value of 0.05.

PHD3 [1] = molecular target: PHD3 (Homo sapiens, UniProt Q9H6Z9); experiment: 2,4-DNPH α-KG assay with PHD3
Method: as §1, §2, §3

[2] = system: glutamate dehydrogenase (GDH); experiment: 2,4-DNPH oxidative deamination assay with GDH; assay type: biochemical, thermophilic bacterium species; details: 0.25 μM GDH; for IC50: 5 mM L-glutamate, 2.5 mM NAD^+, brackets 95% confidence interval
Method: Next, we selected two reported GDH inhibitors to assess their IC50 values using the 2,4-DNPH α-KG assay. For these experiments, we held glutamate and NAD^+ at saturating concentrations of 5 mM and 2.5 mM, respectively, while varying the concentrations of inhibitors. Hexachlorophene (HCP) is a noncompetitive inhibitor of GDH that binds to the inner core of the GDH hexamer, thereby preventing the conformational changes necessary for catalytic turnover ([60]). […] Conversely, 2-Methyleneglutarate (2-MG) was selected as a nonaromatic, competitive inhibitor of GDH with respect to L-glutamate ([61]).
Lyophilized GDH was resuspended in a solution of 50 mM Tris-base buffer (pH 8.0) and […]. Each oxidative deamination reaction was carried out in a final volume of 0.5 ml. The cofactor mix was prepared with 50 mM Tris-base buffer (pH 8.0), 1 mM EDTA, 5 mM L-glutamate and 2.5 mM NAD^+ and commenced by adding 0.25 μM GDH. The reaction was allowed to proceed at 50 °C for up to 30 min. During the course of the reaction, 50 μl was withdrawn at various time points from the reaction tube and quenched in 50 μl of 10% TCA at predetermined time points and vortexed. The downstream processing steps are identical to those of the 2,4-DNPH α-KG assay.
as §2, §3

PHD2 = details: read-out: Km (app; α-KG), cited from earlier work
PHD3 [3] = details: read-out: Km (app; α-KG), cited from earlier work

Sequence of PHD2_181-426 (Q9GZT9 181-426): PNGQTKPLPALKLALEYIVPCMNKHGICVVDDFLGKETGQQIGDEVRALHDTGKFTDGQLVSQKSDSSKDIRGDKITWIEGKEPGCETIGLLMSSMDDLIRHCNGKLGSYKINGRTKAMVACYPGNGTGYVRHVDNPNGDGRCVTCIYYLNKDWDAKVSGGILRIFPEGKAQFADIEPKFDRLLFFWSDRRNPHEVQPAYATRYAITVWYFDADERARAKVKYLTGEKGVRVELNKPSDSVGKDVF
Sequence of PHD3 (Homo sapiens, UniProt Q9H6Z9) (Q9H6Z9 whole entry): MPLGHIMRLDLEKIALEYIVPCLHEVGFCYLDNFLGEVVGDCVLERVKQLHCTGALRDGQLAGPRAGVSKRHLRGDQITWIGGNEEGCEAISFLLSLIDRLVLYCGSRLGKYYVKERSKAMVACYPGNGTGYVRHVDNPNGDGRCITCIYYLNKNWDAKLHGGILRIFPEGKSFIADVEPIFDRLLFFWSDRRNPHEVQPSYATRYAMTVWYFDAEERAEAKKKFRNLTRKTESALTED

Structure (SMILES): [Cl-].[Cl-].[Co+2] [CoCl2, cobalt (II) chloride, reference compound]
IC50 (PHD2_181-426): 6.4 µM
IC50 (PHD3 [1]; 0.5 mM α-ketoglutarate, 100 μM HIF peptide, 10 μM PHD3, brackets 95% confidence interval): 79.3 µM

kcat for glutamate ([2]; increasing L-glutamate, saturating other reagents): 4.47 ± 0.067 s⁻¹
Km ([2]; increasing L-glutamate, saturating other reagents, read-out: Km for glutamate): 746 ± 58.6 µM
Structure (SMILES): N[C@@H](CCC(=O)O)C(=O)O [glutamate, L-glutamate]

Structure (SMILES): O=C(O)CCC(=O)C(=O)O [α-ketoglutarate]
kcat (α-ketoglutarate titration) (PHD2_181-426): 0.0717 ± 0.005 s⁻¹
Km (PHD2; PHD2, ref Dao et al. ([52])): 0.343 ± 0.028 µM
Km (PHD2; PHD2, ref Hirsila et al. ([2])): 60 µM
Km (PHD2; PHD2, ref Koivunen et al. ([51])): 1 ± 0.2 µM
Km (PHD2; PHD2^181–426, ref Ehrismann et al. ([11])): 55 ± 1.1 µM
Km (PHD2; PHD2^181–426, ref McNeill et al. ([10])): 25 ± 6 µM
Km (PHD2; PHD2^181–426, ref Tarhonskaya et al. ([19])): 13 ± 2 µM
Km (PHD3 [3]; ref Hirsila et al. ([2])): 55 µM
Km (PHD3 [3]; ref Koivunen et al. ([51])): 12 ± 4 µM
Km (PHD3 [3]; ref Oehme et al. ([25])): 3 µM

Structure (SMILES): Oc1c(Cl)cc(Cl)c(Cl)c1Cc1c(O)c(Cl)cc(Cl)c1Cl [HCP, Hexachlorophene, reference compound]
IC50 [2]: 1.52 µM

IC50 (PHD3 [1]): 51.3 µM
Structure (SMILES): O=C(O)CNC(=O)C(=O)O [NOG, N-oxalylglycine]

Structure (SMILES): C=C(CCC(=O)O)C(=O)O [2-MG, 2-methyleneglutaric acid, reference compound]
IC50 [2]: 24.9 µM
IC50 ([2]; listed as 2-Methyleneglutarate (2-MG)): 24.9 µM

Structure (SMILES): NC(=O)c1ccc[n+]([C@@H]2O[C@H](COP(=O)([O-])OP(=O)(O)OC[C@H]3O[C@@H](n4cnc5c(N)ncnc54)[C@H](O)[C@@H]3O)[C@@H](O)[C@H]2O)c1 [NAD^+, nicotinamide adenine dinucleotide]
kcat for NAD^+ ([2]; increasing NAD^+, saturating other reagents): 4.2 ± 0.13 s⁻¹
Km ([2]; increasing NAD^+, saturating other reagents, read-out: Km for NAD^+): 517 ± 55.8 µM

— publication PMC7961094 (The Journal of Biological Chemistry, 2021)
